Measured values reported in patent US20250171413A1, “ANTIVIRAL INDOLINYL COMPOUNDS AND USES THEREOF” (Gilead Sciences, Inc., priority 2023, published 2025).
Where two headings read alike, the source gives them in different places.

Tested on: HSV-2 virus (MS strain)
Assay: HSV-2 Cellomics Assay (immunofluorescence of HSV protein gD)
Assay type: cell-based
Conditions: Human alphaherpesvirus 2, HSV-2 (MS strain, MOI 0.06) infected ARPE-19 cells, 16 hours
Procedure: Compounds were tested for their ability to inhibit HSV-2 replication by monitoring the expression of the HSV protein gD using a high-throughput immunofluorescence-based assay. 10-dose, 3-fold serial dilutions of compounds were prepared at starting concentrations of 0.2 or 2 mM in 100% DMSO. 250 nl of compounds were spotted in quadruplicates onto black collagen-coated 384-well microplates with clear bottom (Greiner cat #781956) using a Labcyte ECHO acoustic dispenser. The final starting concentration in the assay was either […]. DMSO (no compound) and pritelivir were included on each microplate as negative and positive controls, respectively.
ARPE-19 cells (ATCC cat #CRL-2302) were maintained DMEM/F-12 Glutamax medium (Thermo Fisher Scientific cat #10565018) supplemented with 10% FBS (Corning cat #35-011-CV) and 1% Penicillin-Streptomycin (cat #30-002-CI). Prior to confluence, cells were transferred to a centrifuge tube and spun for 5 minutes at 1000 rpm. Cells were resuspended in assay medium (DMEM/F-12 Glutamax, 2% FBS, 1% Penicillin-Streptomycin) and counted. Cell density was adjusted to 150,000 cells/ml and infected with HSV-2 virus (MS strain, ATCC cat #VR-540) at a MOI of 0.06 in a 50 ml conical tube for 1 hour under constant rocking. Cells were then spun for 5 minutes at 1000 rpm and the media replaced with assay medium containing either 2% FBS or 10% human serum (EMD Millipore cat #S1-100ML). 50 μl of the infection suspension were added into microplate wells that were pre-spotted with compounds (7,500 cells per well). Plates were incubated for 16 hours at 37° C.
Cell culture medium was aspirated using a Biomek Fx and 50 μl of a paraformaldehyde solution (Electron Microscopy Sciences cat #15712-5) diluted to 4% in DPBS (Corning cat #21-031-CM) were added per well. After a 30-minute incubation at room temperature, plates were washed 4 times with 100 μl/well of PBS using a Biotek plate washer. A 1:500 solution of primary antibody (anti-HSV gD, Virusys cat #P1103) was prepared in permeabilization buffer (Invitrogen cat #00-8333-56) and 50 μl were added into wells. After a 1-hour incubation at room temperature, 50 μl of a 1:1000 solution of secondary antibody (Alexa Fluor 488 goat anti-mouse, Thermo Fisher Scientific cat #A11001) and DAPI (Thermo Fisher Scientific cat #62248) in permeabilization buffer were added into wells and plates were incubated in the dark at room temperature for 1 hour. Plates were washed 4 times again and 50 μl of DPBS were added to all wells prior to sealing the plates with a black adhesive seal. Fluorescence was measured on a Cellomics plate reader.
Data analysis was carried out using the Thermo Scientific HCS Studio software. Briefly, cells were identified using the DAPI nuclear stain and thresholds were set to filter cells out based on shape and size. A second threshold based on green fluorescence intensity (detection of HSV-2 gD) was set to identify HSV-2 infected cells. Data was reported as the average fluorescence intensity of HSV-2 infected cells. EC50 values were defined as the compound concentration that caused a 50% decrease in the average fluorescence intensity and was calculated using a sigmoidal dose-response model to generate curve fits.

[1] = assay medium containing 2% FBS, read-out: EC50-HSV2-FBS
[2] = assay medium containing 10% human serum, read-out: EC50-HSV2-10% Human Serum

EC50 [1] [nM] | EC50 [2] [nM] | SMILES
5 | 304 | CCNS(=O)(=O)c1cc2c(cc1F)CCN2C(=O)[C@@H]1Cc2ccc(-c3ccccn3)cc2C1 [Example 30, (R)—N-ethyl-5-fluoro-1-(5-(pyridin-2-yl)-2,3-dihydro-1H-indene-2-carbonyl)indoline-6-sulfonamide]
31 | 55 | COCCS(=N)(=O)c1cc2c(cc1F)CCN2C(=O)[C@@H]1Cc2ccc(-c3ccccn3)cc2C1 (stereo partly drawn) [Example 13, (5-fluoro-1-((R)-5-(pyridin-2-yl)-2,3-dihydro-1H-indene-2-carbonyl)indolin-6-yl)(imino)(2-methoxyethyl)-16-sulfanone]
